Laboratory results: patent US20060173015A1, “Cyclohexyldiamines as selective alpha 1a/1d adrenoreceptor antagonists for the treatment of benign prostatic hypertrophy and lower urinary tract symptoms” (priority 2004, published 2006)

Key:
α1b-AR = biological target: T1, α1b-AR (Homo sapiens, UniProt P35368); experiment: α1-Adrenergic receptor radio-ligand (125I-HEAT) binding assay, α1b subtype; details: Receptor Binding, Ki α1b-AR, COS-7 cell membranes, 125I-HEAT
T1 sequence (P35368 1-520): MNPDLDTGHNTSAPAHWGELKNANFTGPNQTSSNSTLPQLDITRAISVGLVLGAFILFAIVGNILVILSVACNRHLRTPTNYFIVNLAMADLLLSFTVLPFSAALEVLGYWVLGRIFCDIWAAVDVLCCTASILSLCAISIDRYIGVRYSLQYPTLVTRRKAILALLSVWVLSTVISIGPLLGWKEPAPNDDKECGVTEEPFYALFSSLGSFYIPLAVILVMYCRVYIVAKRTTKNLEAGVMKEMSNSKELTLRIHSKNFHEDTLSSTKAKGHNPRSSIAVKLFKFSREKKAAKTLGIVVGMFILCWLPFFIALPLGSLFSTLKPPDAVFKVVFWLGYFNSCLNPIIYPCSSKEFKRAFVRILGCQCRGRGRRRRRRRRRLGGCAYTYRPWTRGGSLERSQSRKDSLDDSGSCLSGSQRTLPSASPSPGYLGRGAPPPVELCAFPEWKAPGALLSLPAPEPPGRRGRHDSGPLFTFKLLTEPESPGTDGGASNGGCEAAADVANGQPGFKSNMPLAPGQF

α1a-AR = biological target: T2, α1a-AR (Homo sapiens, UniProt P35348); experiment: α1-Adrenergic receptor radio-ligand (125I-HEAT) binding assay, α1a subtype; details: COS-7 cell membranes, 125I-HEAT
T2 construct: expressed in transfected cells; host or cells: COS-7
T2 sequence (P35348 1-466): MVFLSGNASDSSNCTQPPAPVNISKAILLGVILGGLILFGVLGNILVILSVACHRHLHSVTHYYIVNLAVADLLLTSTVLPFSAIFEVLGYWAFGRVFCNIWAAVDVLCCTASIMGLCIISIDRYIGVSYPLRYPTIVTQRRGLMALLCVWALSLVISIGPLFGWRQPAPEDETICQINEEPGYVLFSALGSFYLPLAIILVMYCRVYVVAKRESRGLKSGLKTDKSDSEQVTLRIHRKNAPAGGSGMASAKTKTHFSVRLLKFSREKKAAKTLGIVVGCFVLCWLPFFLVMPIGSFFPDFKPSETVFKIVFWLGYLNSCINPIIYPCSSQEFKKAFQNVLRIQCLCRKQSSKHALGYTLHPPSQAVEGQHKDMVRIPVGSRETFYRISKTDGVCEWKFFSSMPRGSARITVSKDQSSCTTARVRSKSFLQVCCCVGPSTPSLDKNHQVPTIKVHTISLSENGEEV
Procedure: (§1) α1-Adrenergic Receptor Binding Assay: Preparation of COS Cell Membranes
(§2) Membranes were prepared from COS-7 cells that had been transfected with one of the three α1-AR subtypes by the following method. COS cells from ten 100 mm tissue culture plates were scraped into 5 mL TE (50 mM Tris-HCl, 5 mM EDTA, pH 7.4). The cell suspension was disrupted with a Brinkman Polytron, setting 8, for 10 sec. The disrupted cells were centrifuged at 1000×g for 10 min at 4° C. Supernatants were centrifuged at 34,500×g for 20 min at 4° C. The membrane pellets were suspended in 2 mL TNE (50 mM Tris-HCl, 5 mM EDTA, 150 mM NaCl, pH7.4). An aliquot of the membrane suspension was stored at −70° C. until use. The protein concentration was determined using the BioRad DC protein assay kit following membrane solubilization with Triton X-100.
(§3) Radio-Ligand Binding Assay
(§4) Triplicate determinations of radio-ligand binding in the presence of increasing: concentrations of testing compound were made. The reagents were added to 96-well polypropylene plate wells using the Biomek 1000 robot (Beckman Instruments). Each assay well contained 140 μl TNE, 25 μL ^125I-HEAT (specific activity 2200 Ci/mmol, Dupont-NEN, 50 pM final), 10 μL testing compound dissolved in DMSO (1 pM to 10 μM in half-log increments, final), and 25 μL appropriate α1-AR membrane subtype suspension in TNE (0.5 ng/μL for the α1a and α1b subtypes and 13 ng/μL for the α1d subtype). The plate was incubated at rt for 1 hr. The contents of the wells were filtered through a GF/C membrane Unifilter plate (Packard Instruments) using the Packard Filtermate cell harvester. The filter plates were dried in a vacuum oven for 30 min at 40° C. 25 μL Microscint 20 liquid scintillation fluid (Packard Instuments) was added to each well. The radioactive content was analyzed in the TopCount microplate scintillation counter (Packard Instruments).

α1d-AR = biological target: T3, α1d-AR (Homo sapiens, UniProt P25100); experiment: α1-Adrenergic receptor radio-ligand (125I-HEAT) binding assay, α1d subtype; details: COS-7 cell membranes, 125I-HEAT; read-out: Receptor Binding, Ki α1d-AR
T3 construct: expressed in transfected cells; host or cells: COS-7
T3 sequence (P25100 1-572): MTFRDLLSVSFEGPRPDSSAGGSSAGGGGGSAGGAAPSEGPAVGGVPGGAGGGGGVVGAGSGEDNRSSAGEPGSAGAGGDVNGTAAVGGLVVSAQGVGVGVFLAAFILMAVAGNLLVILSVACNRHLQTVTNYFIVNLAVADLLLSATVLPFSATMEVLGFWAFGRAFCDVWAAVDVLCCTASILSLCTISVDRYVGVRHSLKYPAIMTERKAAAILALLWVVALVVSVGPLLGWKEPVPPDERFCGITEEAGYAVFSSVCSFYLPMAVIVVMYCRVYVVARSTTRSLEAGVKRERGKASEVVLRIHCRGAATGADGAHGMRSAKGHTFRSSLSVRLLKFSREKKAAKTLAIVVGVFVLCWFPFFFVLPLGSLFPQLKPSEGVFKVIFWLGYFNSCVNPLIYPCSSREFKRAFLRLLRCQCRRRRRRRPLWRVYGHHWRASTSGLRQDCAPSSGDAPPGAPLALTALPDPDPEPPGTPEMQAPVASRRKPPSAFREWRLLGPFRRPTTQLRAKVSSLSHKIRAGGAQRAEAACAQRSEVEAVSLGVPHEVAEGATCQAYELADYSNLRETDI
Procedure: as §1, §2, §3
as §4, with “Each assay well contained 140 μl TNE, 25 μL ^125I-HEAT (specific activity 2200 Ci/mmol, Dupont-NEN, 50 pM final), 10 μL testing compound dissolved in DMSO (1 pM to 10 μM in half-log increments, final), and 25 μL appropriate α1-AR membrane subtype suspension in TNE (0.5 ng/μL for the α1a and α1b subtypes and 13 ng/μL for the α1d subtype).” left out

| Structure (SMILES) | Ki (α1b-AR) | Ki (α1a-AR) | Ki (α1d-AR) |
| --- | --- | --- | --- |
| Cc1c(Cl)cccc1S(=O)(=O)N[C@H]1CC[C@H](N2CCN(c3ccccc3OC(C)C)CC2)CC1 [Cpd 39, 3-Chloro-N-trans-{4-[4-(2-isopropoxy-phenyl)-piperazin-1-yl]-cyclohexyl}-2-methyl-benzenesulfonamide] | 554 nM | 1.1 nM | 5.4 nM |
| COc1ccc(S(=O)(=O)N[C@H]2CC[C@@H](N3CCN(c4ccc(F)cc4OCC(F)(F)F)CC3)CC2)cc1OC [Cpd 75, N-cis-(4-{4-[4-Fluoro-2-(2,2,2-trifluoro-ethoxy)-phenyl]-piperazin-1-yl}-cyclohexyl)-3,4-dimethoxy-benzenesulfonamide] | 176 nM | 13.9 nM | 5.2 nM |
| CC(C)Oc1ccccc1N1CCN([C@H]2CC[C@H](NS(=O)(=O)c3ccc(F)c(Cl)c3)CC2)CC1 [Cpd 42, 3-Chloro-4-fluoro-N-trans-{4-[4-(2-isopropoxy-phenyl)-piperazin-1-yl]-cyclohexyl}-benzenesulfonamide] | 2300 nM | 6.6 nM | 72 nM |
| COc1ccc(Cl)cc1S(=O)(=O)N[C@H]1CC[C@@H](N2CCN(c3ccc(F)cc3OC(C)C)CC2)CC1 [Cpd 73, 5-Chloro-N-cis-{4-[4-(4-fluoro-2-isopropoxy-phenyl)-piperazin-1-yl]-cyclohexyl}-2-methoxy-benzenesulfonamide] | 81 nM | 598 nM | 134 nM |
| COc1ccc(S(=O)(=O)N[C@H]2CC[C@@H](N3CCN(c4ccc(F)cc4OC(C)C)CC3)CC2)cc1OC [Cpd 71, N-cis-{4-[4-(4-Fluoro-2-isopropoxy-phenyl)-piperazin-1-yl]-cyclohexyl}-3,4-dimethoxy-benzenesulfonamide] | 711 nM | 14.9 nM | 5.9 nM |
| CC(C)Oc1cc(F)ccc1N1CCN([C@H]2CC[C@@H](NS(=O)(=O)c3cc(Cl)ccc3F)CC2)CC1 [Cpd 74, 5-Chloro-2-fluoro-N-cis-{4-[4-(4-fluoro-2-isopropoxy-phenyl)-piperazin-1-yl]-cyclohexyl}-benzenesulfonamide] | 101 nM | 5.6 nM | 2.2 nM |
| COc1ccc(F)cc1S(=O)(=O)N[C@H]1CC[C@H](N2CCN(c3ccccc3OC(C)C)CC2)CC1 [Cpd 43, 5-Fluoro-N-trans-{4-[4-(2-isopropoxy-phenyl)-piperazin-1-yl]-cyclohexyl}-2-methoxy-benzenesulfonamide] | 714 nM | 11 nM | 66 nM |
| CC(C)Oc1ccccc1N1CCN([C@H]2CC[C@@H](NS(=O)(=O)c3ccccc3[N+](=O)[O-])CC2)CC1 [Cpd 26] | 201 nM | 6.3 nM | 2.5 nM |
| CC(C)Oc1ccccc1N1CCN([C@H]2CC[C@@H](NS(=O)(=O)c3ccc(C(F)(F)F)cc3)CC2)CC1 [Cpd 9, N-cis-{4-[4-(2-Isopropoxy-phenyl)-piperazin-1-yl]-cyclohexyl}-4-trifluoromethyl-benzenesulfonamide] | 124 nM | 25 nM | 18 nM |
| O=S(=O)(N[C@H]1CC[C@@H](N2CCN(c3ccc(F)cc3OCC(F)(F)F)CC2)CC1)c1cc(Cl)ccc1F [Cpd 77, 5-Chloro-2-fluoro-N-cis-(4-{4-[4-fluoro-2-(2,2,2-trifluoro-ethoxy)-phenyl]-piperazin-1-yl}-cyclohexyl)-benzenesulfonamide] | 206 nM | 43 nM | 29 nM |
| Cc1ccc(S(=O)(=O)N[C@H]2CC[C@H](N3CCN(c4ccccc4OC(C)C)CC3)CC2)cc1Cl [Cpd 46, 3-Chloro-N-trans-{4-[4-(2-isopropoxy-phenyl)-piperazin-1-yl]-cyclohexyl}-4-methyl-benzenesulfonamide] | 193 nM | 1.5 nM | 16 nM |
| COc1ccc(S(=O)(=O)N[C@H]2CC[C@@H](N3CCN(c4cc(F)ccc4OCC(F)(F)F)CC3)CC2)cc1OC [Cpd 83, N-cis-(4-{4-[5-Fluoro-2-(2,2,2-trifluoro-ethoxy)-phenyl]-piperazin-1-yl}-cyclohexyl)-3,4-dimethoxy-benzenesulfonamide] | 75 nM | 1.7 nM | 0.58 nM |
| CC(C)Oc1ccccc1N1CCN([C@H]2CC[C@@H](NS(=O)(=O)c3cccc(F)c3)CC2)CC1 [Cpd 22, 3-Fluoro-N-cis-{4-[4-(2-isopropoxy-phenyl)-piperazin-1-yl]-cyclohexyl}-benzenesulfonamide] | 108 nM | 3.5 nM | 3.3 nM |
| COc1ccc(F)cc1S(=O)(=O)N[C@H]1CC[C@@H](N2CCN(c3ccccc3OC(C)C)CC2)CC1 [Cpd 15, 5-Fluoro-N-cis-{4-[4-(2-isopropoxy-phenyl)-piperazin-1-yl]-cyclohexyl}-2-methoxy-benzenesulfonamide] | 162 nM | 6 nM | 5 nM |
| CC(C)Oc1ccccc1N1CCN([C@H]2CC[C@H](NS(=O)(=O)c3cccnc3)CC2)CC1 [Cpd 64, Pyridine-3-sulfonic acid N-trans-{4-[4-(2-isopropoxy-phenyl)-piperazin-1-yl]-cyclohexyl}-amide] | 192 nM | 5.8 nM | 5.5 nM |
| COc1ccc(Cl)cc1S(=O)(=O)N[C@H]1CC[C@H](N2CCN(c3ccccc3OC(C)C)CC2)CC1 [Cpd 31, 5-Chloro-N-trans-{4-[4-(2-isopropoxy-phenyl)-piperazin-1-yl]-cyclohexyl}-2-methoxy-benzenesulfonamide] | 250 nM | 3.8 nM |  |
| COc1ccc(Cl)cc1S(=O)(=O)N[C@H]1CC[C@@H](N2CCN(c3ccccc3OC(C)C)CC2)CC1 [Cpd 3, 5-Chloro-N-cis-{4-[4-(2-isopropoxy-phenyl)-piperazin-1-yl]-cyclohexyl}-2-methoxy-benzenesulfonamide] | 47.6 nM | 2.5 nM |  |
